For the test, the system named is 4-methyl-5-(2-hydroxyethyl)thiazole kinase from E. coli. Put plainly: Kinetic parameters of crotyl alcohol phosphorylation (spectrophotometric assay of Example 2). Format: biochemical. Particulars: crotyl alcohol phosphorylation by purified E. coli kinase. How it is done:
The release of ADP that is associated with crotyl alcohol phosphorylation was quantified using the pyruvate kinase/lactate dehydrogenase coupled assay (FIG. 5). The purified 4-methyl-5-(2-hydroxyethyl)thiazole kinases from Escherichia coli (SEQ ID NO:2), Bacillus subtilis (SEQ ID NO:1), Rhizobium leguminosarum (SEQ ID NO:3) were evaluated for their ability to phosphorylate crotyl alcohol releasing ADP. The studied enzymatic reaction was carried out under the following conditions at 37° C.: • 50 mM Tris-HCl pH 7.5 • 10 mM MgCl2 • 100 mM KCl • 5 mM ATP • 0.4 mM NADH • 1 mM Phosphoenolpyruvate • 3 U/ml Lactate dehydrogenase • 1.5 U/ml Pyruvate kinase • 50 mM crotyl alcohol, mixture cis and trans • The pH was adjusted to 7.5
Each assay was started by addition of a particular enzyme at a concentration 0.05 mg/ml and the disappearance of NADH was monitored by following the absorbance at 340 nm.
Kinetic parameters of crotyl alcohol phosphorylation were determined using the spectrophotometric assay described in Example 2.

As for `C/C=C/CO` [Trans crotyl alcohol], the Michaelis constant (Km) was 30 mM.
For `C/C=C\CO` [Cis crotyl alcohol] the value was 13.6 mM.

For orientation: Km means the substrate concentration at which the rate is half of its maximum.
